# US9833497B2, “Human originated EGF domain proteins and use of the same” (CHENGDU SOURCEBIO LIMITED-LIABILITY COMPANY, priority 2013, dated 2017)
# How the values were obtained:
# Assay type in all cases: cell-based
# E. coli DH5α = test: Antibacterial activity: MIC and growth curve against E. coli DH5α in 96-well plate; settings: minimal inhibitory concentration against E. coli DH5α; 96-well plate, 5×10^5 CFU/mL, 37° C., judged after 8 h
# Outline: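 Log-phase bacteria (OD600 ~0.5) resuspended in LB at 5×10^5 CFU/mL, exposed to recombinant protein at 50, 25, 12.5 μg/mL final in triplicate, 37 °C shaking at 175 rpm. OD600 read every 30 min; MIC is lowest concentration showing no growth.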
# E. coli BL21 = test: MIC against Gram-negative bacteria: E. coli BL21
# Outline: (§1)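 LB broth cultures at McFarland 0.5, spun down, resuspended, diluted to 5×10^5 CFU/mL final. Two-fold serial dilutions of purified human EGF domain proteins, triplicate. 37° C, 175 rpm shaking. Endpoint: no visible growth.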
# Pseudomonas aeruginosa = test: MIC against Gram-negative bacteria: Pseudomonas aeruginosa
# Outline: as §1
# Klebsiella pneumonia = test: MIC against Gram-negative bacteria: Klebsiella pneumonia
# Outline: as §1
# Enterobacter cloacae = test: MIC against Gram-negative bacteria: Enterobacter cloacae
# Outline: as §1
# Aeromonas hydrophila = test: MIC against Gram-negative bacteria: Aeromonas hydrophila
# Outline: as §1
# Citrobacter diversus = test: MIC against Gram-negative bacteria: Citrobacter diversus
# Outline: as §1
# Moraxella catarrhalis = test: MIC against Gram-negative bacteria: Moraxella catarrhalis
# Outline: as §1
# Proteus mirabilis = test: MIC against Gram-negative bacteria: Proteus mirabilis
# Outline: as §1
# Proteus vulgaris = test: MIC against Gram-negative bacteria: Proteus vulgaris
# Outline: as §1
# Serratia marcescens = test: MIC against Gram-negative bacteria: Serratia marcescens
# Outline: as §1
# [1] = 96-well plate, 5×10^5 CFU/mL, 37° C., 10 h
# [2] = E. coli BL21, 10 h cultivation at 37° C., 5×10^5 CFU/mL
# [3] = P. aeruginosa, 10 h cultivation at 37° C., 5×10^5 CFU/mL
# [4] = K. pneumonia, 10 h cultivation at 37° C., 5×10^5 CFU/mL
# [5] = E. cloacae, 10 h cultivation at 37° C., 5×10^5 CFU/mL
# [6] = A. hydrophila, 10 h cultivation at 37° C., 5×10^5 CFU/mL
# [7] = C. diversus, 10 h cultivation at 37° C., 5×10^5 CFU/mL
# [8] = M. catarrhalis, 10 h cultivation at 37° C., 5×10^5 CFU/mL
# [9] = P. mirabilis, 10 h cultivation at 37° C., 5×10^5 CFU/mL
# [10] = P. vulgaris, 10 h cultivation at 37° C., 5×10^5 CFU/mL
# [11] = S. marcescens, 10 h cultivation at 37° C., 5×10^5 CFU/mL
substance,measurement,setting,value
PRT1024 (DVDECQPSRCHPDAFCYNTPGSFTCQCKPGYQGDGFRCV; listed as Homo sapiens),MIC,E. coli DH5α,50 µg/mL
same,MIC,"E. coli BL21; E. coli BL21, 10 h cultivation at 37° C.",12.5 µg/mL
same,MIC,"Pseudomonas aeruginosa; P. aeruginosa, 10 h cultivation at 37° C.",50 µg/mL
same,MIC,"Klebsiella pneumonia; K. pneumonia, 10 h cultivation at 37° C.",25 µg/mL
same,MIC,"Enterobacter cloacae; E. cloacae, 10 h cultivation at 37° C.",12.5 µg/mL
same,MIC,"Aeromonas hydrophila; A. hydrophila, 10 h cultivation at 37° C.",25 µg/mL
same,MIC,"Citrobacter diversus; C. diversus, 10 h cultivation at 37° C.",50 µg/mL
same,MIC,"Moraxella catarrhalis; M. catarrhalis, 10 h cultivation at 37° C.",25 µg/mL
same,MIC,"Proteus mirabilis; P. mirabilis, 10 h cultivation at 37° C.",12.5 µg/mL
same,MIC,"Proteus vulgaris; P. vulgaris, 10 h cultivation at 37° C.",50 µg/mL
same,MIC,"Serratia marcescens; S. marcescens, 10 h cultivation at 37° C.",12.5 µg/mL
PRT658 (DVNECELMLAVCGAALCENVEGSFLCLCASDLEEYDAQEGHCR; listed as Homo sapiens),MIC,E. coli DH5α,12.5 µg/mL
same,MIC E. coli BL21,E. coli BL21; [1],25 µg/mL
same,MIC P. aeruginosa,Pseudomonas aeruginosa; [1],50 µg/mL
same,MIC K. pneumonia,Klebsiella pneumonia; [1],25 µg/mL
same,MIC E. cloacae,Enterobacter cloacae; [1],12.5 µg/mL
same,MIC A. hydrophila,Aeromonas hydrophila; [1],25 µg/mL
same,MIC C. diversus,Citrobacter diversus; [1],50 µg/mL
same,MIC M. catarrhalis,Moraxella catarrhalis; [1],12.5 µg/mL
same,MIC P. mirabilis,Proteus mirabilis; [1],25 µg/mL
same,MIC P. vulgaris,Proteus vulgaris; [1],50 µg/mL
same,MIC S. marcescens,Serratia marcescens; [1],12.5 µg/mL
PRT498 (CDCNPHGSVHGDCDRTSGQCVCRLGASGLRCDECEPRHILMETDCVS; listed as Homo sapiens),MIC,E. coli DH5α,12.5 µg/mL
same,MIC against E. coli BL21,E. coli BL21; [1],50 µg/mL
same,MIC against P. aeruginosa,Pseudomonas aeruginosa; [1],12.5 µg/mL
same,MIC against K. pneumonia,Klebsiella pneumonia; [1],12.5 µg/mL
same,MIC against E. cloacae,Enterobacter cloacae; [1],12.5 µg/mL
same,MIC against A. hydrophila,Aeromonas hydrophila; [1],12.5 µg/mL
same,MIC against C. diversus,Citrobacter diversus; [1],25 µg/mL
same,MIC against M. catarrhalis,Moraxella catarrhalis; [1],12.5 µg/mL
same,MIC against P. mirabilis,Proteus mirabilis; [1],25 µg/mL
same,MIC against P. vulgaris,Proteus vulgaris; [1],12.5 µg/mL
same,MIC against S. marcescens,Serratia marcescens; [1],25 µg/mL
PRT871 (CYCNPLGSIHDRCNGSGFCECKTGTTGPKCDECLPGNSWHYGCQPNVCDN; listed as Homo sapiens),MIC,E. coli DH5α,12.5 µg/mL
same,MIC (μg/mL) E. coli BL21,E. coli BL21; [2],25 µg/mL
same,MIC (μg/mL) P. aeruginosa,Pseudomonas aeruginosa; [3],50 µg/mL
same,MIC (μg/mL) K. pneumonia,Klebsiella pneumonia; [4],12.5 µg/mL
same,MIC (μg/mL) E. cloacae,Enterobacter cloacae; [5],12.5 µg/mL
same,MIC (μg/mL) A. hydrophila,Aeromonas hydrophila; [6],12.5 µg/mL
same,MIC (μg/mL) C. diversus,Citrobacter diversus; [7],12.5 µg/mL
same,MIC (μg/mL) M. catarrhalis,Moraxella catarrhalis; [8],25 µg/mL
same,MIC (μg/mL) P. mirabilis,Proteus mirabilis; [9],12.5 µg/mL
same,MIC (μg/mL) P. vulgaris,Proteus vulgaris; [10],50 µg/mL
same,MIC (μg/mL) S. marcescens,Serratia marcescens; [11],12.5 µg/mL
PRT234 (DINECATLSKVSCGKFSDCWNTEGSYDCVCSPGYEPVSGAKTFKNESENTCQ; listed as Homo sapiens),MIC,E. coli DH5α,25 µg/mL
same,MIC (μg/mL) E. coli BL21,E. coli BL21; [2],50 µg/mL
same,MIC (μg/mL) P. aeruginosa,Pseudomonas aeruginosa; [3],25 µg/mL
same,MIC (μg/mL) K. pneumonia,Klebsiella pneumonia; [4],12.5 µg/mL
same,MIC (μg/mL) E. cloacae,Enterobacter cloacae; [5],25 µg/mL
same,MIC (μg/mL) A. hydrophila,Aeromonas hydrophila; [6],12.5 µg/mL
same,MIC (μg/mL) C. diversus,Citrobacter diversus; [7],25 µg/mL
same,MIC (μg/mL) M. catarrhalis,Moraxella catarrhalis; [8],12.5 µg/mL
same,MIC (μg/mL) P. mirabilis,Proteus mirabilis; [9],25 µg/mL
same,MIC (μg/mL) P. vulgaris,Proteus vulgaris; [10],12.5 µg/mL
same,MIC (μg/mL) S. marcescens,Serratia marcescens; [11],25 µg/mL
PRT7 (TCLSSKEGTICSGNGVCSNELKCVCNRHWIGSDCN; listed as Homo sapiens),MIC,E. coli DH5α,12.5 µg/mL
same,MIC (μg/mL) E. coli BL21,"E. coli BL21; E. coli BL21, 96-well plate, 5×10^5 CFU/mL, 37° C., 10 h",25 µg/mL
same,MIC (μg/mL) P. aeruginosa,"Pseudomonas aeruginosa; Pseudomonas aeruginosa, 96-well plate, 5×10^5 CFU/mL, 37° C., 10 h",25 µg/mL
same,MIC (μg/mL) K. pneumonia,"Klebsiella pneumonia; Klebsiella pneumonia, 96-well plate, 5×10^5 CFU/mL, 37° C., 10 h",12.5 µg/mL
same,MIC (μg/mL) E. cloacae,"Enterobacter cloacae; Enterobacter cloacae, 96-well plate, 5×10^5 CFU/mL, 37° C., 10 h",12.5 µg/mL
same,MIC (μg/mL) A. hydrophila,"Aeromonas hydrophila; Aeromonas hydrophila, 96-well plate, 5×10^5 CFU/mL, 37° C., 10 h",50 µg/mL
same,MIC (μg/mL) C. diversus,"Citrobacter diversus; Citrobacter diversus, 96-well plate, 5×10^5 CFU/mL, 37° C., 10 h",12.5 µg/mL
same,MIC (μg/mL) M. catarrhalis,"Moraxella catarrhalis; Moraxella catarrhalis, 96-well plate, 5×10^5 CFU/mL, 37° C., 10 h",25 µg/mL
same,MIC (μg/mL) P. mirabilis,"Proteus mirabilis; Proteus mirabilis, 96-well plate, 5×10^5 CFU/mL, 37° C., 10 h",50 µg/mL
same,MIC (μg/mL) P. vulgaris,"Proteus vulgaris; Proteus vulgaris, 96-well plate, 5×10^5 CFU/mL, 37° C., 10 h",50 µg/mL
same,MIC (μg/mL) S. marcescens,"Serratia marcescens; Serratia marcescens, 96-well plate, 5×10^5 CFU/mL, 37° C., 10 h",12.5 µg/mL
PRT504 (CDCSGNVDPSEAGHCDSVTGECLKCLGNTDGAHCERCADGFYGDAVTAKNCRA; listed as Homo sapiens),MIC,E. coli DH5α,12.5 µg/mL
same,MIC against E. coli BL21,E. coli BL21; [1],50 µg/mL
same,MIC against P. aeruginosa,Pseudomonas aeruginosa; [1],12.5 µg/mL
same,MIC against K. pneumonia,Klebsiella pneumonia; [1],50 µg/mL
same,MIC against E. cloacae,Enterobacter cloacae; [1],12.5 µg/mL
same,MIC against A. hydrophila,Aeromonas hydrophila; [1],25 µg/mL
same,MIC against C. diversus,Citrobacter diversus; [1],50 µg/mL
same,MIC against M. catarrhalis,Moraxella catarrhalis; [1],25 µg/mL
same,MIC against P. mirabilis,Proteus mirabilis; [1],12.5 µg/mL
same,MIC against P. vulgaris,Proteus vulgaris; [1],50 µg/mL
same,MIC against S. marcescens,Serratia marcescens; [1],12.5 µg/mL
